± gives the expanded uncertainty stated by the source.
Assay: mn = molality of the nth substance listed, in mol/kg
Conditions: 101 kPa, Liquid; for viscosity: Capillary tube (Ostwald / Ubbelohde) method; for speed of sound: Pulse-echo method; for mass density: Vibrating tube method

CCCCCCCCCCCCc1ccccc1S(=O)(=O)[O-].[Na+] [sodium dodecylbenzenesulfonate (ILL DEFINED!)] + O
viscosity (298.15 K, m1 = 0.05): 0.999 ± 0.011 mPa·s | viscosity (298.15 K, m1 = 0.1): 1.106 ± 0.011 mPa·s | speed of sound (298.15 K, m1 = 0.05): 1498.7 ± 1.6 m/s | speed of sound (298.15 K, m1 = 0.1): 1500 ± 1.6 m/s | mass density (298.15 K, m1 = 0.05): 999.92 ± 0.4 kg/m3 | mass density (298.15 K, m1 = 0.1): 1002.75 ± 0.41 kg/m3 | viscosity (308.15 K, m1 = 0.05): 0.795 ± 0.009 mPa·s | viscosity (308.15 K, m1 = 0.1): 0.868 ± 0.01 mPa·s | speed of sound (308.15 K, m1 = 0.05): 1522.7 ± 1.6 m/s | speed of sound (308.15 K, m1 = 0.1): 1523.5 ± 1.6 m/s | mass density (308.15 K, m1 = 0.05): 996.76 ± 0.4 kg/m3 | mass density (308.15 K, m1 = 0.1): 999.44 ± 0.4 kg/m3
